# Patent US20230263809A1, “FOOD SUPPLEMENT FOR ALZHEIMER” (FOLIUM BIOSCIENCES EUROPE B.V., priority 2019, published 2023)
# What was measured:
# [1] = test system: neurological behaviours; assay: Restoring neurological behaviours on uptake of phytosterols; assay type: in vivo; conditions: uptake of the phytosterol
# [2] = Side effects on uptake of phytosterols (compared with synthetic LXRα/β activators); assay type: in vivo; conditions: side effects caused normally by synthetic LXRα/β activators
# [3] = test system: cholesterol absorption; conditions: by competing with cholesterol absorption; cited from earlier work
# [4] = test system: Amyloid-β deposits; conditions: in vivo; cited from earlier work
SMILES,restore neurological behaviours [1],side effects [2],cholesterol lowering effect [3],removal of the toxic clumps of Amyloid-β deposits in the brain [4]
C=CC(O)(CC[C@@H](C)[C@H]1CC[C@H]2[C@@H]3CC=C4C[C@@H](O)CC[C@]4(C)[C@H]3CC[C@]12C)C(C)C (stereo partly drawn) [24(S)-Saringosterol],help restore neurological behaviours,without registering any side effects,–,–
C/C=C(\CC[C@@H](C)[C@H]1CC[C@H]2[C@@H]3CC=C4C[C@@H](O)CC[C@]4(C)[C@H]3CC[C@]12C)C(C)C [Fucosterol],help restore neurological behaviours,without registering any side effects,shows a cholesterol lowering effect,–
"CCCCCc1cc(O)c2c(c1)OC(C)(C)[C@@H]1CCC(C)=C[C@@H]21 [THC, Δ^9-tetrahydrocannabidiol]",–,–,–,promote the removal of the toxic clumps of Amyloid-β deposits
